Values of other authors, collected in US20260144779A1, “MODIFIED RELEASE PHARMACEUTICAL FORMULATIONS COMPRISING DEFERIPRONE” (CHIESI FARMACEUTICI S.P.A., priority 2022, published 2026).

Conditions: in vivo

Half-life: 2 to 3 h
SMILES: Cc1c(O)c(=O)ccn1C [Deferiprone, 3-hydroxy-1,2-dimethylpyridin-4-one]
